Results taken from paper PMC9694711, “Synthesis of Paclitaxel Derivatives for Remote Loading into Liposomes and Improved Therapeutic Effect” (Molecules, 2022).

Tests used:
[1] = Liposome loading with copper ion gradients (encapsulation efficiency by HPLC); assay type: physicochemical; details: copper ion gradient
Excerpt: Vyxeos® is a liposomal formulation of a fixed molar ratio (1:5) combination of the antineoplastic drugs daunorubicin (DN) and cytarabine (Cyt). Daunorubicin is subsequently actively encapsulated with high efficiency through complexation with intra-liposomal copper. The copper gluconate buffer forms a complex with daunorubicin at a ratio of 1:1 to 1:2 [25]. Referring to Vyxeos®, copper ion was selected as a complexed metal ion in the inner phase. […] Therefore, compound 4d was selected to investigate the effect of the anions on the loading efficiency. Among them, only the neutral gluconate copper was a suitable inner phase to facilitate the encapsulation of compound 4d (Table 3).
(§1) The reason for the stability of the neutral formulations was potentially due to the fact that PBA was effectively […] and interacted with copper more tightly in the neutral condition compared with the acidic condition. Thus, the neutral Cu-gluconate was selected as the inner phase. The concentration of copper ions was also investigated, showing that the higher the copper concentration, the higher the EE. Considering the safety of copper ions, 300 mM was chosen. […] The EE of compound 4d active loading liposome was more than 95% with copper ion gradient. Furthermore, we also evaluated the ATP and saccharides as remote gradients with the optimal formulation of copper ion gradients.
(§2) Blank liposomes were prepared for membrane hydration. HSPC, chol and DSPE-PEG2000 were dissolved using chloroform at a mass ratio of 3:1:0.02 and then spin-evaporated at 37 °C. The obtained film was then hydrated with 300 mM Cu-Glu (pH 7.4) at 65 °C for 30 min. The multi-layer vesicles were subsequently put into an extruder and passed through polycarbonate membranes with pore sizes of 400 nm, 200 nm and 100 nm 12 times at 65 °C containing 20 mM HEPES, 15 mM EDTA and 300 mM sucrose for removing the un-encapsulated Cu^2+, and then EDTA was removed with 20 mM HEPES and 300 mM sucrose buffer (pH 7.4, adjusted with triethylamine). Compound 4d was dissolved in DMSO and slowly added into the liposome at 65 °C for 30 min and then quenched in an ice bath for 5 min (the drug to lipid ratio was 1:10). The encapsulation efficiency and drug loading efficiency of compound 4d were determined using HPLC. The morphologies of liposomes were characterized using a transition electron microscope (TEM, Hitachi HT7700, Tokyo, Japan); then, their size, PDI and Zeta potential were measured using a Zetasizer Nano ZS90 (Malvern, UK).

[2] = Liposome loading with calcium acetate gradients; assay type: physicochemical; details: sediment precipitated after loading
Excerpt: Since boronic acid RB(OH)2 is not only a weak acid, but also a structure that can complex with copper ions, ATP and saccharides, we investigated whether different inner phases could be employed to encapsulate compounds (4a, 4d, 13a, 17a, 17c) with good therapeutic index.

[3] = test system: colon cancer cell line HCT-116; assay: MTT assay, cytotoxicity on HCT-116; assay type: cell-based, human; details: for GI50: Homo sapiens, HCT-116, MTT, 72 h, mean of two independent determinations; for TI (LO2/HCT-116): therapeutic index, GI50 LO2 / GI50 HCT-116
Procedure: (§3) MTT assay was applied to verify the rationality of the molecular combination strategy. The cytotoxicity of the compounds was evaluated on lung cancer cell line A549, colon cancer cell line HCT-116, breast cancer cell line 4T1 and normal hepatocyte cell line LO2. Paclitaxel was used as a positive drug. […] The therapeutic index (TI) for LO2/HCT-116, LO2/A549 and LO2/4T1 of active compounds 4a, 4d, 13a, 17a, 17c and paclitaxel are shown in Table 2.
(§4) Cells were inoculated in 96-well plates (cell density 2 × 10^4 cells/well) followed by incubation for 24 h at 37 °C. Paclitaxel and target compounds were added to the corresponding well. Subsequently, the cultures were incubated for 72 h. After the MTT solution (50 µL, 2 mg/mL) was added to cultures, the plates were incubated for an additional 4 h. Purple colored formazan crystals were dissolved in 200 µL DMSO, and the absorbance was recorded at 570 nm using Synergy HT, Bio-Tek (Winooski, VT, USA).

[4] = test system: breast cancer cell line 4T1; assay: MTT assay, cytotoxicity on 4T1; assay type: cell-based, mouse; details: for inhibition % at fixed concentration, 4T1 (printed in GI50 column): @100 nM; for GI50: Mus musculus, MTT, 72 h, mean of two independent determinations; for TI (LO2/4T1): therapeutic index, GI50 LO2 / GI50 4T1
Procedure: as §3, §4

[5] = test system: lung cancer cell line A549; assay: MTT assay, cytotoxicity on A549; assay type: cell-based, human; details: for GI50: Homo sapiens, A549, MTT, 72 h, mean of two independent determinations; for TI (LO2/A549): therapeutic index, GI50 LO2 / GI50 A549
Procedure: as §3, §4

[6] = test system: normal hepatocyte cell line LO2; assay: MTT assay, cytotoxicity on normal cell LO2; assay type: cell-based; details: for GI50: Hepatocyte, MTT, 72 h, mean of two independent determinations; for inhibition % at fixed concentration, LO2 (printed in GI50 column): @2 μM
Procedure: as §3, §4

[7] = Liposome loading with ATP and saccharides gradients; assay type: physicochemical; details: gradient ATP
Procedure: as §1
Thus, the copper ion gradient was chosen for further experiments.
Blank liposomes were prepared for membrane hydration. HSPC, chol and DSPE-PEG2000 were dissolved using chloroform at a mass ratio of 3:1:0.02 and then spin-evaporated at 37 °C. The obtained film was then hydrated with 300 mM Cu-Glu (pH 7.4) at 65 °C for 30 min. […] The encapsulation efficiency and drug loading efficiency of compound 4d were determined using HPLC. The morphologies of liposomes were characterized using a transition electron microscope (TEM, Hitachi HT7700, Tokyo, Japan); then, their size, PDI and Zeta potential were measured using a Zetasizer Nano ZS90 (Malvern, UK).

[8] = Characterisation of compound 4d liposome (size, PDI, zeta potential, loading, storage stability); assay type: physicochemical; details: optimal formulation, drug to lipid ratio 1:10
Procedure: The morphology of compound 4d liposome is shown in Figure 3 and Figure 4, with spherical particles, a narrow size distribution at ~110 nm and zeta potential at ~−15 mV (Table S2).
as §2

4T1 xenograft tumor = assay: In vivo antitumor efficacy and toxicity, 4T1 tumor model; details: 8 mg/kg, 4 times; mice bearing 4T1 tumor
Procedure: A549 and HCT-116 cells are human tumor cells, while 4T1 cells are mouse tumor cells. Based on the availability of the tumor model, mice bearing a 4T1 xenograft tumor were used to study the in vivo antitumor efficacy of the compound 4d liposome. As depicted in Figure 6a, there was difference between compound 4d (8 mg/kg) and the paclitaxel control group (8 mg/kg).
The antitumor effect was evaluated by the nude mice armpit tumor model bearing breast cancer 4T1 cells. When the average tumor volume reached 100 mm^3, the treatment was initiated at a 3-day interval for 12 days. The mice were randomly divided into five groups (n = 5 per group) receiving different palictaxel at 8 mg/kg as follows: saline (the control group), taxol, compound 4d, compound 4d liposome, high dose 4d liposome (3 times the dose, immediately 24 mg/kg). Tumor volume (V = length × width^2/2) and body weight were recorded. At the end of the experiment, mice were sacrificed. The obtained tumors were accurately weighed to calculate the tumor burden (Wtumor/Wbody) and tumor inhibition rate [TIR= (Wcontrol tumor − Wsample tumor)/Wcontrol tumor].

CC(=O)OC1C(=O)C2(C)C(O)CC3OCC3(OC(C)=O)C2C(OC(=O)c2ccccc2)C2(O)CC(OC(=O)C(OC(=O)CCC(=O)OCc3ccc(B(O)O)cc3)C(NC(=O)c3ccccc3)c3ccccc3)C(C)=C1C2(C)C (stereo not drawn) [Compound 4a, 2’-O-[4-((4-boronobenzyl)oxy)-4-oxobutyryl]taxol]
loading into liposomes, copper ion as complexed metal ion in the inner phase [1]: failed in loading into the liposomes | encapsulation into liposomes by calcium acetate gradients [2]: not feasible | GI50 [3]: 73.7 nM | TI (LO2/HCT-116) [3]: 25.4 | inhibition % at fixed concentration, 4T1 (printed in GI50 column) [4]: 20.85%@100 nM | GI50 [5]: 68.5 nM | TI (LO2/A549) [5]: 27.4 | GI50 [6]: 1880 nM

CC(=O)OC1C(=O)C2(C)C(O)CC3OCC3(OC(C)=O)C2C(OC(=O)c2ccccc2)C2(O)CC(OC(=O)C(OC(=O)CSSCC(=O)OCc3ccc(B(O)O)cc3)C(NC(=O)c3ccccc3)c3ccccc3)C(C)=C1C2(C)C (stereo not drawn) [Compound 4d, 2’-O-[2-((2-((4-boronobenzyl)oxy)-2-oxoethyl)disulfaneyl)acetyl]taxol]
Encapsulated efficiency, optimal formulation ([1]; drug-to-lipid ratio of 0.1 w/w (1:10)): > 95% | encapsulation into liposomes by calcium acetate gradients [2]: not feasible | GI50 [3]: 13 nM | TI (LO2/HCT-116) [3]: 49.1 | loading with inner phase of ATP [7]: not successful | GI50 [4]: 69.8 nM | TI (LO2/4T1) [4]: 9.2 | GI50 [5]: 13.9 nM | TI (LO2/A549) [5]: 45.9 | GI50 [6]: 639 nM | Loading efficiency (%) [8]: 9.02%

CC(=O)OC1C(=O)C2(C)C(O)CC3OCC3(OC(C)=O)C2C(OC(=O)c2ccccc2)C2(O)CC(OC(=O)C(OC(=O)OCCCCCB(O)O)C(NC(=O)c3ccccc3)c3ccccc3)C(C)=C1C2(C)C (stereo not drawn) [Compound 10a, 2’-O-[5-boronopentyl carbonate]taxol]
GI50 [3]: > 100 nM | GI50 [4]: > 100 nM | GI50 [5]: > 100 nM | inhibition % at fixed concentration, LO2 (printed in GI50 column) [6]: 32.81%@2 μM

CC(=O)OC1C(=O)C2(C)C(O)CC3OCC3(OC(C)=O)C2C(OC(=O)c2ccccc2)C2(O)CC(OC(=O)C(OC(=O)OCc3ccc(B(O)O)cc3)C(NC(=O)c3ccccc3)c3ccccc3)C(C)=C1C2(C)C (stereo not drawn) [Compound 13a, 2’-O-[4-boronobenzyl carbonate]taxol]
loading into liposomes, copper ion as complexed metal ion in the inner phase [1]: failed in loading into the liposomes | encapsulation into liposomes by calcium acetate gradients [2]: not feasible | GI50 [3]: 8.73 nM | TI (LO2/HCT-116) [3]: 111.3 | GI50 [4]: 92.9 nM | TI (LO2/4T1) [4]: 10.5 | GI50 [5]: 22.5 nM | TI (LO2/A549) [5]: 43.3 | GI50 [6]: 972 nM

CC(=O)OC1C(=O)C2(C)C(O)CC3OCC3(OC(C)=O)C2C(OC(=O)c2ccccc2)C2(O)CC(OC(=O)C(OC(=O)CCB(O)O)C(NC(=O)c3ccccc3)c3ccccc3)C(C)=C1C2(C)C (stereo not drawn) [Compound 17a, 2’-O-[3-boronopropanoyl]taxol]
loading into liposomes, copper ion as complexed metal ion in the inner phase [1]: failed in loading into the liposomes | encapsulation into liposomes by calcium acetate gradients [2]: not feasible | GI50 [3]: 7.98 nM | TI (LO2/HCT-116) [3]: 89.5 | GI50 [4]: 68.1 nM | TI (LO2/4T1) [4]: 10.5 | GI50 [5]: 21.8 nM | TI (LO2/A549) [5]: 32.7 | GI50 [6]: 715 nM

CC(=O)OC1C(=O)C2(C)C(O)CC3OCC3(OC(C)=O)C2C(OC(=O)c2ccccc2)C2(O)CC(OC(=O)C(OC(=O)CCCB(O)O)C(NC(=O)c3ccccc3)c3ccccc3)C(C)=C1C2(C)C (stereo not drawn) [Compound 17b, 2’-O-[4-boronobutanoyl]taxol]
GI50 [3]: 38.3 nM | inhibition % at fixed concentration, 4T1 (printed in GI50 column) [4]: 17.89%@100 nM | GI50 [5]: 69.2 nM | inhibition % at fixed concentration, LO2 (printed in GI50 column) [6]: 38.06%@2 μM

CC(=O)OC1C(=O)C2(C)C(O)CC3OCC3(OC(C)=O)C2C(OC(=O)c2ccccc2)C2(O)CC(OC(=O)C(OC(=O)CCCCB(O)O)C(NC(=O)c3ccccc3)c3ccccc3)C(C)=C1C2(C)C (stereo not drawn) [Compound 17c, 2’-O-[5-boronopentanoyl]taxol]
loading into liposomes, copper ion as complexed metal ion in the inner phase [1]: failed in loading into the liposomes | encapsulation into liposomes by calcium acetate gradients [2]: not feasible | GI50 [3]: 6.38 nM | TI (LO2/HCT-116) [3]: 222.1 | GI50 [4]: 87.2 nM | TI (LO2/4T1) [4]: 16.3 | GI50 [5]: 44.8 nM | TI (LO2/A549) [5]: 31.6 | GI50 [6]: 1420 nM

CC(=O)O[C@H]1C(=O)[C@@]2(C)[C@H]([C@H](OC(=O)c3ccccc3)[C@]3(O)C[C@H](OC(=O)[C@H](O)[C@@H](NC(=O)c4ccccc4)c4ccccc4)C(C)=C1C3(C)C)[C@]1(OC(C)=O)CO[C@@H]1C[C@@H]2O [paclitaxel]
inhibition % at fixed concentration, HCT-116 (printed in GI50 column) ([3]; @6.25 nM): 81.86%@6.25 nM | GI50 [4]: 25.3 nM | TI (LO2/4T1) [4]: 2.7 | inhibition % at fixed concentration, A549 (printed in GI50 column) ([5]; @6.25 nM): 64.96%@6.25 nM | GI50 [6]: 69.1 nM | tumor inhibition rate (4T1 xenograft tumor): 58.5%
